Results from ChEMBL document CHEMBL1141539, “Neutral 5-substituted 4-indazolylaminoquinazolines as potent, orally active inhibitors of erbB2 receptor tyrosine kinase” (Bioorg Med Chem Lett, 2008).
Values after ≈ are worked out from the molar mass of the structure shown. Blank lines part the entries; values can stand above or below the compound they belong to.

How the values were obtained:
[1] = Solubility in aqueous phosphate buffer at pH 7.4 after 24 hrs; assay type: physicochemical
[2] = test system: Phospholipidosis; test: In vivo phospholipidosis in rat; assay type: ADME, organism-based
[3] = Volume of distribution at steady state in dog at 1 mg/kg, iv and 2 mg/kg, po; assay type: ADME, organism-based, Canis lupus familiaris; details: in vivo, read-out: Vdss
[4] = Volume of distribution at steady state in rat at 1 mg/kg, iv and 2 mg/kg, po; assay type: ADME, organism-based; details: in vivo, read-out: Vdss
[5] = Oral bioavailability in rat at 2 mg/kg; assay type: ADME, organism-based; details: in vivo
[6] = Oral bioavailability in dog at 2 mg/kg, po; assay type: ADME, organism-based, Canis lupus familiaris; details: in vivo
[7] = Distribution coefficient, log D at pH 7.4; assay type: physicochemical; details: octanol/water
[8] = Permeability across dog MDCK-MDR cell membrane; assay type: ADME, cell-based, Canis lupus familiaris; details: MDCK-MDR1

solubility at 24 h [1]: 3 µM (≈ 1.32 µg/mL)
SMILES: C[C@@H](Oc1cccc2ncnc(Nc3ccc4c(cnn4Cc4ccccn4)c3)c12)C(N)=O

solubility at 24 h [1]: 4 µM (≈ 1.81 µg/mL)
SMILES: CNC(=O)[C@@H](C)Oc1cccc2ncnc(Nc3ccc4c(cnn4Cc4ccccn4)c3)c12

solubility at 24 h [1]: 3 µM (≈ 1.45 µg/mL)
SMILES: C[C@@H](Oc1cccc2ncnc(Nc3ccc4c(cnn4Cc4cccc(F)c4)c3)c12)C(=O)N(C)C

solubility at 24 h [1]: 44 µM (≈ 20.8 µg/mL)
SMILES: C[C@@H](Oc1cccc2ncnc(Nc3ccc4c(cnn4Cc4cscn4)c3)c12)C(=O)N(C)C

solubility at 24 h [1]: 29 µM (≈ 13.7 µg/mL)
SMILES: C[C@@H](Oc1cccc2ncnc(Nc3ccc4c(cnn4Cc4nccs4)c3)c12)C(=O)N(C)C

Vd [3]: 3.1 L/kg
Vd [4]: 2 L/kg
bioavailability [5]: 50%
bioavailability [6]: 36%
solubility at 24 h [1]: 101 µM (≈ 52.1 µg/mL)
logD [7]: 2.6
Papp [8]: 10 ×10⁻⁶ cm/s
SMILES: C[C@@H](Oc1cccc2ncnc(Nc3ccc4c(cnn4Cc4nccs4)c3)c12)C(=O)N1CCOCC1
Phospholipidosis [2]: Not Active

Vd [3]: 2.3 L/kg
Vd [4]: 2.1 L/kg
bioavailability [5]: 36%
bioavailability [6]: 40%
solubility at 24 h [1]: 270 µM (≈ 126 µg/mL)
logD [7]: 2.9
SMILES: C[C@@H](Oc1cccc2ncnc(Nc3ccc4c(cnn4Cc4ccccn4)c3)c12)C(=O)N(C)C
